Results reported in patent US20210116454A1, “METHODS FOR TREATING A HEMATOLOGICAL CANCER AND THE USE OF COMPANION BIOMARKERS FOR 2-(2,6-DIOXOPIPERIDIN-3-YL)-4-((2-FLUORO-4-((3-MORPHOLINOAZETIDIN-1-YL)METHYL)BENZYL)AMINO)ISOINDOLINE-1,3-DIONE” (CELGENE CORPORATION, priority 2019, published 2021).
Like-named read-outs stand apart in the source and are kept apart here.

How the values were obtained:
Assay in all cases: 5-day viable cell number and apoptosis (7-AAD exclusion/Annexin V flow cytometry)
Type in all cases: cell-based
Farage = system: Farage
Text: (§1) The DLBCL panel includes seven cell lines classified as activated B-cell (ABC) subtype, thirteen cell lines classified as the germinal center B-cell (GCB) subtype, and three cell lines classified as primary mediastinal B-cell lymphoma (PMBL). […] The translocation of MYC, BCL6, or BCL2 to an IG locus usually leads to high levels of mRNA and protein due to the active transcription driven by a constitutively active IG promoter. […] Expressions of CRBN protein and known substrates, Ikaros, Aiolos, and ZFP91 were also evaluated (FIG. 1, panels B and C).
(§2) The panel of cell lines were treated with increasing doses of compounds for five days, at which time the number of viable cells was measured and the amount of apoptosis was determined by 7-AAD exclusion and Annexin V staining using flow cytometry.

OCI-LY-3 = OCI-LY-3 cells, 5 days
Text: as §1, §2

OCI-LY-7 = system: OCI-LY-7
Text: as §1, §2

OCI-Ly10 = system: OCI-Ly10
Text: as §1, §2

RC-K8 = system: RC-K8
Text: as §1, §2

RIVA = system: RIVA
Text: as §1, §2

SU-DHL-2 = system: SU-DHL-2
Text: as §1, §2

[1] = Homo sapiens, OCI-Ly7, 120 h, OCI-LY-7 cells, 5 days
[2] = Homo sapiens, 120 h, OCI-Ly10 cells, 5 days
[3] = Homo sapiens, RCK8, 120 h, RC-K8 cells, 5 days
[4] = Homo sapiens, 120 h, SU-DHL-2 cells, 5 days

With `O=C1CC[C@H](N2C(=O)c3cccc(NCc4ccc(CN5CC(N6CCOCC6)C5)cc4F)c3C2=O)C(=O)N1` [Compound 1, (S)-2-(2,6-dioxopiperidin-3-yl)-4-((2-fluoro-4-((3-morpholinoazetidin-1-yl)methyl)benzyl)amino)isoindoline-1,3-dione] the EC50 (Farage; 120 h, Farage cells, 5 days) was 73.6 nM, the Emax (Farage; 120 h, Farage cells, 5 days) was 54.2% and the IC50 (Farage; 120 h, Farage cells, 5 days, read-out: % Viable Cells IC50) was 3.7 nM. The IC50 (Farage; Farage cells (Table 3), read-out: IC50) was 59000 nM, the “% Viable Cells AUC” value (Farage; Farage cells, 5 days) was 59.29 and the “% Viable Cells Emax” value (Farage; Farage cells, 5 days) was 1.676%. For the same compound, the “% Viable Cells Sensitivity” value (Farage; Farage cells, 5 days) was “High (highly sensitive to Compound 1 with less than 6% viable cells remaining (Emax) after treatment)”, the “Apoptosis AUC” value (Farage; Farage cells, 5 days) was 503.6 and the “Apoptosis Sensitivity” value (Farage; Farage cells, 5 days) was “High”. The EC50 (OCI-LY-3; Homo sapiens, OCI-Ly3, 120 h) was 0.46 nM, the Emax (OCI-LY-3; Homo sapiens, OCI-Ly3, 120 h) was 0.753% and the “% Viable Cells AUC” value (OCI-LY-3) was 986.1. The “% Viable Cells Emax” value (OCI-LY-3) was 84.33%, the “% Viable Cells Sensitivity” value (OCI-LY-3) was “Limited” and the “Apoptosis AUC” value (OCI-LY-3) was 7.009. The “Apoptosis Sensitivity” value (OCI-LY-3) was “Limited”, the EC50 (OCI-LY-7; [1]) was 12.8 nM and the Emax (OCI-LY-7; [1]) was 68.8%. The IC50 (OCI-LY-7; Homo sapiens, OCI-Ly7, 120 h, OCI-LY-7 cells, 5 days, read-out: % Viable Cells IC50) was 3.6 nM, the IC50 (OCI-LY-7; Homo sapiens, OCI-Ly7, OCI-LY-7 cells (Table 3), read-out: IC50) was 62000 nM and the “% Viable Cells AUC” value (OCI-LY-7; OCI-LY-7 cells, 5 days) was 61.98. The “% Viable Cells Emax” value (OCI-LY-7; OCI-LY-7 cells, 5 days) was 1.657%, the “% Viable Cells Sensitivity” value (OCI-LY-7; OCI-LY-7 cells, 5 days) was “High (highly sensitive to Compound 1 with less than 6% viable cells remaining (Emax) after treatment)” and the “Apoptosis AUC” value (OCI-LY-7; OCI-LY-7 cells, 5 days) was 673.2. For the same compound, the “Apoptosis Sensitivity” value (OCI-LY-7; OCI-LY-7 cells, 5 days) was “High”, the EC50 (OCI-Ly10; [2]) was 2090 nM and the Emax (OCI-Ly10; [2]) was 29.4%. For the same compound, the IC50 (OCI-Ly10; Homo sapiens, 120 h, OCI-Ly10 cells, 5 days, read-out: % Viable Cells IC50) was 50 nM, the IC50 (OCI-Ly10; Homo sapiens, OCI-Ly10 cells (Table 3), read-out: IC50) was 267000 nM and the “% Viable Cells AUC” value (OCI-Ly10; OCI-Ly10 cells, 5 days) was 267.3. For the same compound, the “% Viable Cells Emax” value (OCI-Ly10; OCI-Ly10 cells, 5 days) was 19.19%, the “% Viable Cells Sensitivity” value (OCI-Ly10; OCI-Ly10 cells, 5 days) was “Intermediate (intermediate sensitivity with 15% to 55% cell viability)” and the “Apoptosis AUC” value (OCI-Ly10; OCI-Ly10 cells, 5 days) was 187.7. The “Apoptosis Sensitivity” value (OCI-Ly10; OCI-Ly10 cells, 5 days) was “Intermediate”, the EC50 (RC-K8; [3]) was 230 nM and the Emax (RC-K8; [3]) was 9.53%. The IC50 (RC-K8; Homo sapiens, RCK8, 120 h, RC-K8 cells, 5 days, read-out: % Viable Cells IC50) was 100 nM, the IC50 (RC-K8; Homo sapiens, RCK8, RC-K8 cells (Table 3), read-out: IC50) was 409000 nM and the “% Viable Cells AUC” value (RC-K8; RC-K8 cells, 5 days) was 409.1. For the same compound, the “% Viable Cells Emax” value (RC-K8; RC-K8 cells, 5 days) was 34.92%, the “% Viable Cells Sensitivity” value (RC-K8; RC-K8 cells, 5 days) was “Intermediate (intermediate sensitivity with 15% to 55% cell viability)” and the “Apoptosis AUC” value (RC-K8; RC-K8 cells, 5 days) was 81.59. For the same compound, the “Apoptosis Sensitivity” value (RC-K8; RC-K8 cells, 5 days) was “Intermediate”, the EC50 (RIVA; 120 h, RIVA cells, 5 days) was 19 nM and the Emax (RIVA; 120 h, RIVA cells, 5 days) was 22.7%. For the same compound, the IC50 (RIVA; 120 h, RIVA cells, 5 days, read-out: % Viable Cells IC50) was 50 nM, the IC50 (RIVA; RIVA cells (Table 3), read-out: IC50) was 396000 nM and the “% Viable Cells AUC” value (RIVA; RIVA cells, 5 days) was 395.8. The “% Viable Cells Emax” value (RIVA; RIVA cells, 5 days) was 36.99%, the “% Viable Cells Sensitivity” value (RIVA; RIVA cells, 5 days) was “Intermediate (intermediate sensitivity with 15% to 55% cell viability)” and the “Apoptosis AUC” value (RIVA; RIVA cells, 5 days) was 216.6. The “Apoptosis Sensitivity” value (RIVA; RIVA cells, 5 days) was “Intermediate”, the EC50 (SU-DHL-2; [4]) was 7.78 nM and the Emax (SU-DHL-2; [4]) was 75.2%. For the same compound, the IC50 (SU-DHL-2; Homo sapiens, 120 h, SU-DHL-2 cells, 5 days, read-out: % Viable Cells IC50) was 1.3 nM, the IC50 (SU-DHL-2; Homo sapiens, SU-DHL-2 cells (Table 3), read-out: IC50) was 7000 nM and the “% Viable Cells AUC” value (SU-DHL-2; SU-DHL-2 cells, 5 days) was 6.871.
